Source: the NIST ThermoML archive (doi:10.1016/j.fluid.2016.10.005)
± gives the expanded uncertainty stated by the source.

Experiment: molar heat capacity at constant pressure; mn = molality of the nth substance listed, in mol/kg
Conditions: 101 kPa, Liquid, DSC

CCCCCOCCOCCOCCO [ethanol, 2-[2-[2-(pentyloxy)ethoxy]ethoxy]-] + O
molar heat capacity at constant pressure [J/K/mol]
Conditions	298.15 K	308.15 K	318.15 K	328.15 K	333.15 K
m1 = 0.0166	–	75.53 ± 2.9	75.56 ± 2.9	75.61 ± 2.9	75.66 ± 2.9
m1 = 0.0321	–	75.78 ± 2.9	75.79 ± 2.9	75.85 ± 2.9	75.9 ± 2.9
m1 = 0.0392	–	75.89 ± 2.9	75.9 ± 2.9	75.96 ± 2.9	76 ± 2.9
m1 = 0.06	–	76.2 ± 3	76.21 ± 3	76.27 ± 3	76.32 ± 3
m1 = 0.0876	–	76.62 ± 3	76.63 ± 3	76.68 ± 3	76.74 ± 3
m1 = 0.1214	–	77.13 ± 3	77.14 ± 3	77.2 ± 3	77.24 ± 3
m1 = 0.1388	–	77.4 ± 3	77.41 ± 3	77.47 ± 3	77.51 ± 3
m1 = 0.1661	–	77.81 ± 3	77.85 ± 3	77.89 ± 3	77.91 ± 3
m1 = 0.1861	–	78.12 ± 3	78.21 ± 3	78.2 ± 3	78.21 ± 3
m1 = 0.2119	–	78.55 ± 3	78.65 ± 3	78.59 ± 3	78.59 ± 3
m1 = 0.2272	–	78.84 ± 3.1	78.89 ± 3.1	78.81 ± 3.1	78.78 ± 3.1
m1 = 0.2499	–	79.27 ± 3.1	79.21 ± 3.1	79.1 ± 3.1	79.08 ± 3.1
m1 = 0.2726	–	79.68 ± 3.1	79.49 ± 3.1	79.36 ± 3.1	79.36 ± 3.1
m1 = 0.2949	–	80.07 ± 3.1	79.75 ± 3.1	79.59 ± 3.1	79.62 ± 3.1
m1 = 0.314	–	80.32 ± 3.1	79.96 ± 3.1	79.8 ± 3.1	79.84 ± 3.1
m1 = 0.3353	80.89 ± 3.1	80.6 ± 3.1	80.22 ± 3.1	80.05 ± 3.1	80.1 ± 3.1
m1 = 0.3562	81.24 ± 3.1	80.83 ± 3.1	80.45 ± 3.1	80.3 ± 3.1	–
m1 = 0.3851	81.68 ± 3.2	81.19 ± 3.1	80.78 ± 3.1	80.63 ± 3.1	–
m1 = 0.4069	81.99 ± 3.2	81.4 ± 3.2	81.01 ± 3.1	80.87 ± 3.1	–
m1 = 0.426	82.25 ± 3.2	81.62 ± 3.2	81.22 ± 3.1	81.05 ± 3.1	–
m1 = 0.4405	82.43 ± 3.2	81.77 ± 3.2	81.37 ± 3.2	81.17 ± 3.1	–
m1 = 0.4693	82.79 ± 3.2	82.05 ± 3.2	81.69 ± 3.2	81.49 ± 3.2	–
m1 = 0.4858	82.97 ± 3.2	82.23 ± 3.2	81.84 ± 3.2	81.65 ± 3.2	–
m1 = 0.5111	83.27 ± 3.2	82.5 ± 3.2	82.12 ± 3.2	81.93 ± 3.2	–
m1 = 0.5381	83.58 ± 3.2	82.8 ± 3.2	82.41 ± 3.2	82.22 ± 3.2	82.29 ± 3.2
m1 = 0.5586	83.82 ± 3.2	83.04 ± 3.2	82.64 ± 3.2	82.43 ± 3.2	82.51 ± 3.2
m1 = 0.5849	84.14 ± 3.3	83.34 ± 3.2	82.92 ± 3.2	82.72 ± 3.2	82.8 ± 3.2
m1 = 0.6026	84.33 ± 3.3	83.52 ± 3.2	83.11 ± 3.2	82.91 ± 3.2	83 ± 3.2
m1 = 0.6299	84.6 ± 3.3	83.81 ± 3.2	83.39 ± 3.2	83.19 ± 3.2	83.28 ± 3.2
m1 = 0.668	85 ± 3.3	84.22 ± 3.3	83.79 ± 3.2	83.6 ± 3.2	83.67 ± 3.2
m1 = 0.7037	85.34 ± 3.3	84.59 ± 3.3	84.15 ± 3.3	83.97 ± 3.3	84.02 ± 3.3
m1 = 0.731	85.59 ± 3.3	84.86 ± 3.3	84.42 ± 3.3	84.23 ± 3.3	84.3 ± 3.3
m1 = 0.7714	85.97 ± 3.3	85.25 ± 3.3	84.81 ± 3.3	84.65 ± 3.3	84.71 ± 3.3
m1 = 0.8141	86.39 ± 3.3	85.68 ± 3.3	85.26 ± 3.3	85.09 ± 3.3	85.14 ± 3.3
m1 = 0.8293	86.5 ± 3.4	85.79 ± 3.3	85.38 ± 3.3	85.24 ± 3.3	85.28 ± 3.3
m1 = 0.8679	86.88 ± 3.4	86.14 ± 3.3	85.78 ± 3.3	85.64 ± 3.3	85.68 ± 3.3
m1 = 0.9125	87.28 ± 3.4	86.56 ± 3.4	86.22 ± 3.3	86.09 ± 3.3	86.13 ± 3.3
m1 = 0.9573	87.71 ± 3.4	87 ± 3.4	86.71 ± 3.4	86.56 ± 3.4	86.62 ± 3.4
